Measured values: EP2433927A1, “KETOXIME ESTER PHOTOINITIATOR” (Changzhou Tronly New Electronic Materials Co., Ltd, priority 2009, dated 2010)

Assays:
[1] = Thermal stability by TGA (temperature at weight loss); assay type: physicochemical; conditions: for Temp. at Weight Loss 5% / Temp. at Weight Loss 10% / Temp. at Weight Loss 15%: TGA, N2 at 10 °C/min; for Temp. at Weight Loss 5%: 5% weight loss; for Temp. at Weight Loss 10%: 10% weight loss; for Temp. at Weight Loss 15%: 15% weight loss; for thermal stability: result in words, compared with material A (OXE-1)
[2] = Solubility of the photoinitiators in organic solvents; assay type: physicochemical; conditions: 20°C, 100 g solvent

Compound: CCn1c2ccc(C(=O)C(CC3CCCC3)=NOC(=O)c3ccccc3)cc2c2cc(C(=O)c3ccccc3C)ccc21 [C, 1-(6-o-methylbenzoyl-9-ethylcarbazole-3-yl)-(3-cyclopentyl)-propane-1,2-dione-2-benzoic acid oxime ester]
- Temp. at Weight Loss 5% [1]: 230 °C
- Temp. at Weight Loss 10% [1]: 245 °C
- Temp. at Weight Loss 15% [1]: 255 °C
- thermal stability [1]: better thermal stability than that of material A
- solubility ([2]; solvent PGMEA): 6.93 g
- solubility ([2]; solvent cyclohexanone): 18 g

Compound: CCCCCCC(=NOC(=O)c1ccccc1)C(=O)c1ccc(Sc2ccccc2)cc1 [A, 1-(4-phenylthiophenyl)-n-octane-1,2-dione-2-benzoic acid oxime ester, reference compound]
- Temp. at Weight Loss 5% [1]: 185 °C
- Temp. at Weight Loss 10% [1]: 201 °C
- Temp. at Weight Loss 15% [1]: 213 °C

Compound: O=C(ON=C(CC1CCCC1)C(=O)c1ccc(Sc2ccccc2)cc1)c1ccccc1 [B, 1-(4-phenylthiophenyl)-(3-cyclopentyl)-propane-1,2-dione-2-benzoic acid oxime ester]
- Temp. at Weight Loss 5% [1]: 205 °C
- Temp. at Weight Loss 10% [1]: 225 °C
- Temp. at Weight Loss 15% [1]: 236 °C
- thermal stability [1]: better thermal stability than that of material A
- solubility ([2]; solvent PGMEA): 27.49 g
- solubility ([2]; solvent cyclohexanone): 35 g
